Measurements taken from patent US20220324808A1, “Co-crystal of Compound I Dihydrochloride and Preparation Method and Use Thereof” (CRYSTAL PHARMACEUTICAL (SUZHOU) CO., LTD., priority 2020, published 2022).
Read-outs that look alike come from different tables or passages of the source.

Assays:
[1] = Compressibility (manual tablet press, tensile strength); type: physicochemical; settings: 10 KN
Protocol: A manual tablet press was used for compression. 60 mg of Form CSIII and prior art Form A were weighed and added into the dies of a φ6 mm round tooling, compressed at 10 KN manually, then stored at room temperature for 24 h until complete elastic recovery, diameter (D) and thickness (L) were tested with a caliper. Hardness (H) was tested with an intelligent tablet hardness tester. Tensile strength of the powder was calculated with the following formula: T=2H/πDL. Under a certain force, the greater the tensile strength, the better the compressibility.

[2] = Mechanical stability: manual grinding, XRPD before and after; type: physicochemical; settings: ground manually for 5 minutes in mortar
Protocol: Solid sample of prior art Form A, Form CSI and Form CSIII of the present disclosure were separately grounded manually for 5 minutes in mortars. The XRPD patterns overlay before and after grinding is shown in FIG. 14, FIG. 15 and FIG. 16.

[3] = Adhesiveness (material sticking to the punch); type: physicochemical; settings: 30 mg, φ8 mm round tooling, 10 KN; for Maximum amount (mg) of material sticking to the punch: held 30 s
Protocol: 30 mg of Form CSI, Form CSIII and prior art Form A were weighed and then added into the dies of φ8 mm round tooling, compressed at 10 KN and held for 30 s. The punch was weighed and the amount of material sticking to the punch was calculated. The compression was repeated twice and the maximum amount of material sticking to the punch during the compression were recorded.

[4] = cited from earlier work; for crystalline form conversion at low humidity: under 5% RH
[5] = heated to 75-100° C.; WO2014152270A1; cited from earlier work
[6] = Storage stability of drug substance (crystalline form by XRPD, chemical impurity by HPLC); type: physicochemical
From the text: (§1) Crystalline form and chemical impurity were checked by XRPD and HPLC, respectively.
as §1

[7] = Humidity stability by DVS; type: physicochemical; settings: humidity range 0-95% RH, XRPD before and after
Protocol: Dynamic Vapor Sorption (DVS) was measured via an SMS (Surface Measurement Systems Ltd.) intrinsic DVS instrument. Typical Parameters for DVS test are as follows:
Gas and flow rate: nitrogen, 200 mL/min
Rate of mass change: 0.002%/min
RH range: 0% RH to 95% RH
DVS was applied to test the stability of Form CSI under different humidity with about 10 mg of samples. The weight change at each relative humidity were recorded in a humidity range of 0-95% RH.
DVS was applied to test the stability of Form CSIII under different humidity with about 10 mg of samples. The weight change at each relative humidity were recorded in a humidity range of 0-95% RH.

[8] = Mechanical stability: tableting under different pressure, XRPD; type: physicochemical; settings: 5 kN, 10 kN, 20 kN pressure
From the text: A certain amount of Form CSI and Form CSIII were compressed into tablets under 5 kN, 10 kN, 20 kN pressure with suitable tableting die. Crystalline form before and after tableting were checked by XRPD.

[9] = Crystalline form before and after formulation process (XRPD); type: physicochemical; settings: dry granulation and tableting
From the text: The formulation and preparation process of Form CSI and Form CSIII are shown in Table 16 and Table 17, respectively.

[10] = 60 mg, φ6 mm round tooling, after 24 h
[11] = 25° C./60% RH (sealed), 6 Months
[12] = 40° C./75% RH (sealed), 6 Months
[13] = 60° C./75% RH (sealed), 1 Month

**Q.** What does the source list for `COC(=O)N1CCN(Cc2cccc(NC(=O)Nc3ccc(C)nc3)c2F)CC1.Cl.Cl.O` [Form A]?
**A.** Diameter (mm) [1, 10]: 6.00 mm; Hardness (kgf) [1, 10]: 3.38 kgf; Thickness (mm) [1, 10]: 1.67 mm; Tensile strength (MPa) ([1]; T=2H/πDL): 2.11 MPa; crystal form and crystallinity after grinding [2]: crystallinity of prior art Form A decreases after grinding; Maximum amount (mg) of material sticking to the punch [3]: 2.83 mg; weight loss ([4]; DVS, between about 30% RH and about 5% RH, WO2014152270A1): about 2.7 wt %; total weight gain ([4]; DVS, between about 40% RH and about 95% RH, WO2014152270A1): about 0.55 wt %; crystalline form conversion at low humidity [4]: converted to dehydrated state Form C; crystalline form conversion at low humidity ([4]; listed as prior art Form A): converted to Form C; crystalline form conversion on heating [5]: converts to Form B

**Q.** Which “Purity (%)” value ([6]; 25° C./60% RH (open), 6 Months) does the source give for `COC(=O)N1CCN(Cc2cccc(NC(=O)Nc3ccc(C)nc3)c2F)CC1.COC(=O)N1CCN(Cc2cccc(NC(=O)Nc3ccc(C)nc3)c2F)CC1.Cl.Cl.Cl.Cl.O=C(O)/C=C/C(=O)O` [Form CSI] here?
**A.** The value was 99.66%.

**Q.** What about the “Solid Form” value ([6]; 25° C./60% RH (open), 6 Months) of the same compound?
**A.** Its value is “Form CSI”.

**Q.** And the “Purity (%)” value [6, 11]?
**A.** Its value is 99.65%.

**Q.** And the “Solid Form” value [6, 11]?
**A.** The value was “Form CSI”.

**Q.** What about the “storage stability (in words)” value ([6]; 25° C./60% RH and 40° C./75% RH) of the same compound?
**A.** Its value is “stable for at least six months”.

**Q.** And the “Purity (%)” value ([6]; 40° C./75% RH (open), 6 Months)?
**A.** The value was 99.65%.

**Q.** What about the “Solid Form” value ([6]; 40° C./75% RH (open), 6 Months) of the same compound?
**A.** Its value is “Form CSI”.

**Q.** And the “Purity (%)” value [6, 12]?
**A.** Its value is 99.64%.

**Q.** What about the “Solid Form” value [6, 12] of the same compound?
**A.** Its value is “Form CSI”.

**Q.** What about the “storage stability (in words)” value ([6]; 60° C./75% RH) of the same compound?
**A.** Its value is “stable for at least one month”.

**Q.** And the “Purity (%)” value [6, 13]?
**A.** Its value is 99.70%.

**Q.** And the “Solid Form” value [6, 13]?
**A.** Its value is “Form CSI”.

**Q.** What about the “Purity (%)” value ([6]; Initial) of the same compound?
**A.** The value was 99.71%.

**Q.** And the “Solid Form” value ([6]; Initial)?
**A.** The value was “Form CSI”.

**Q.** And the “crystalline state after DVS test” value [7]?
**A.** The value was “remains unchanged”.

**Q.** And the “crystal form and crystallinity after grinding” value [2]?
**A.** Its value is “no crystal transformation and the crystallinity almost has no change after grinding”.

**Q.** What about the “crystalline form after tableting” value [8] of the same compound?
**A.** Its value is “no crystal transformation after tableting under different pressure”.

**Q.** What about the “maximum amount relative to that of the prior art Form A” value [3] of the same compound?
**A.** Its value is “less than ⅕”.

**Q.** And the “Maximum amount (mg) of material sticking to the punch” value [3]?
**A.** Its value is 0.48 mg.

**Q.** And the “crystalline form before and after the formulation process” value [9]?
**A.** Its value is “remain stable before and after the formulation process”.
